Structures are written as SMILES. Activity calls are given as the source filed them. The calls are words filed in the database; no cut-off is given here.

The test system of series [1] is DU-145. Put plainly: Antimetastatic activity in human DU145 cells assessed as increase of E-cadherin expression at 100 uM after 24 hrs by immunofluorescence analysis in presence of TGF-beta. The format is functional, cell-based.
Series [2] relates to DU-145. Put plainly: Antimetastatic activity in human DU145 cells assessed as reduction of vimentin expression at 100 uM after 24 hrs by Western blotting in presence of TGF-beta. The series is classed as functional, cell-based. For orientation: Immunoblotting shows a protein as a band on a membrane.
For series [3], the system named is DU-145. Put plainly: Antimetastatic activity in human DU145 cells assessed as reduction of twist expression at 100 uM after 24 hrs by Western blotting in presence of TGF-beta. The series is classed as functional, cell-based.
Series [4] has as its system DU-145. Put plainly: Antimetastatic activity in human DU145 cells assessed as increase of E-cadherin expression at 100 uM after 24 hrs by Western blotting in presence of TGF-beta. The series is classed as functional, cell-based.
The test system of series [5] is DU-145. Nature of the series: Antiinvasive activity in human DU145 cells assessed as reduction of number of invaded cells through matrigel at 100 uM after 8 hrs by Boyden chamber invasion assay in presence of TGF-beta. The series is classed as functional, cell-based.
The subject of series [6] is DU-145. Put plainly: Antimetastatic activity in human DU145 cells assessed as decrease of MMP9 expression at 100 uM in presence of TGF-beta. The series is classed as functional, cell-based.
Series [7] relates to DU-145. Put plainly: Antimetastatic activity in MMP9 siRNA transfected human DU145 cells assessed as increase of vimentin expression at 25 to 100 uM by Western blotting. The series is classed as functional, cell-based.
Series [8] deals with DU-145. Put plainly: Antimetastatic activity in MMP9 siRNA transfected human DU145 cells assessed as increase of E-cadherin expression at 25 to 100 uM by Western blotting. The series is classed as functional, cell-based.
Series [9] addresses Matrix metalloproteinase-9 (Homo sapiens) (UniProt P14780). Nature of the series: Inhibition of MMP9 in human DU145 cells after 24 hrs by SDS-PAGE gelatin zymography assay. The series is classed as cell-based. Particulars: DU-145.
Series [10] relates to DU-145. Put plainly: Antimetastatic activity in human DU145 cells assessed as decrease of MMP9 mRNA expression at 25 to 100 uM by RT-PCR analysis. The series is classed as functional, cell-based.
In series [11] the test system is DU-145. Nature of the series: Antimetastatic activity in human DU145 cells assessed as decrease of PI3K/Akt expression by Western blotting. The series is classed as functional, cell-based.
The test system of series [12] is DU-145. Put plainly: Antimetastatic activity in human DU145 cells assessed as decrease of snail mRNA expression at 25 to 100 uM by RT-PCR analysis. The series is classed as functional, cell-based.
Series [13] concerns DU-145. Nature of the series: Antimetastatic activity in human DU145 cells assessed as decrease of twist mRNA expression at 25 to 100 uM by RT-PCR analysis. The format is functional, cell-based.
The subject of series [14] is DU-145. Nature of the series: Antimetastatic activity in human DU145 cells assessed as decrease of vimentin mRNA expression at 25 to 100 uM by RT-PCR analysis. The format is functional, cell-based.
For series [15], the system named is DU-145. Nature of the series: Antimetastatic activity in human DU145 cells assessed as increase of E-cadherin mRNA expression at 25 to 100 uM by RT-PCR analysis. The format is functional, cell-based.
Series [16] deals with DU-145. Put plainly: Antimetastatic activity in human DU145 cells assessed as decrease of twist expression at 25 to 100 uM by Western blotting. The format is functional, cell-based.
In series [17] the test system is DU-145. Put plainly: Antimetastatic activity in human DU145 cells assessed as decrease of vimentin expression at 25 to 100 uM by Western blotting. The format is functional, cell-based.
Series [18] relates to DU-145. Nature of the series: Antimetastatic activity in human DU145 cells assessed as increase of E-cadherin expression at 25 to 100 uM by Western blotting. The format is functional, cell-based.
Series [19] has as its system DU-145. Put plainly: Antimigratory activity in human DU145 cells at 100 uM by wound-healing assay. The format is functional, cell-based.
Series [20] relates to DU-145. Nature of the series: Antiinvasive activity in human DU145 cells assessed as reduction of number of invaded cells through matrigel at 25 to 100 uM after 8 hrs by Boyden chamber invasion assay. The series is classed as functional, cell-based.
The subject of series [21] is DU-145. Nature of the series: Inhibition of cell adhesion in human DU145 cells in vitronectin-coated plates at 25 to 100 uM. The format is functional, cell-based.
Series [22] relates to DU-145. Put plainly: Cytotoxicity against human DU145 cells assessed as cell viability up to 200 uM after 24 hrs by MTT assay. The series is classed as cell-based. Particulars: du-145, 24 h. A general note: Tetrazolium dyes change colour on reduction, which living cells bring about.

Chain of Matrix metalloproteinase-9 (Homo sapiens) (P14780 whole entry): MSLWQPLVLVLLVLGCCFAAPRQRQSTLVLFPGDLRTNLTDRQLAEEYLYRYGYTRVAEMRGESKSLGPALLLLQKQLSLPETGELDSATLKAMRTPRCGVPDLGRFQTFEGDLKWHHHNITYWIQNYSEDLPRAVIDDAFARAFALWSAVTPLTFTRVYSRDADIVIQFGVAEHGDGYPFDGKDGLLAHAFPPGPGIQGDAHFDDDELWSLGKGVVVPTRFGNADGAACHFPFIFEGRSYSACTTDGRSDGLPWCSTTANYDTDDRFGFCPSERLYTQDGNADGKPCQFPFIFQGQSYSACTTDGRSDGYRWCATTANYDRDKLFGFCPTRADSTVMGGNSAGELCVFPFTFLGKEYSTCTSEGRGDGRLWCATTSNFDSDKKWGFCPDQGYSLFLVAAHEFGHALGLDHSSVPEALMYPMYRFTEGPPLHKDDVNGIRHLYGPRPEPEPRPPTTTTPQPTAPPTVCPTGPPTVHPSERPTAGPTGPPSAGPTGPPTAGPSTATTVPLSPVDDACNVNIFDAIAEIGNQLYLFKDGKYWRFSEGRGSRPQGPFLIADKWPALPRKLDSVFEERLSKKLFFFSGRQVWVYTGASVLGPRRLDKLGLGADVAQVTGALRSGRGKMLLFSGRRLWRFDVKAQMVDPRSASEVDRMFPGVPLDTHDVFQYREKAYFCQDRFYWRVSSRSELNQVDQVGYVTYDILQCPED

With `C/C=C/c1ccc(OC)cc1` [ANETHOLE], the outcome in [1], in series [2], in [3], in [4], in series [5] and in series [6] was inactive. Besides, the result in series [7] and in [8] was inactive. The inhibition entry in [9] was “Dose-dependent effect”. The result in [10], in series [12], in series [13], in series [14], in series [15] and in [16] was Active. Further, the result in series [17], in series [18], in series [19] and in series [20] was Active. Further, the results for the Activity entry in series [11] and in series [22] were “Dose-dependent effect” and “Non-toxic”, respectively. Moreover, the inhibition entry in series [21] is “Active”.

Source of the values: ChEMBL document CHEMBL3102743, “Regulation of crosstalk between epithelial to mesenchymal transition molecules and MMP-9 mediates the antimetastatic activity of anethole in DU145 prostate cancer cells” (J Nat Prod, 2014).
